Four compounds from patent US7795505B2, “Herbicide-resistance gene and utilization thereof” (Hokko Chemical Industry Co., Ltd., priority 2004, dated 2010) can be followed below.

The Km is the concentration of substrate that gives half-maximal velocity.

For series [1], the system named is enzyme capable of acetylating PPT of Streptomyces sp. AB3534 strain (pUC18-B2). Briefly: Acetylation reaction with crude enzyme solution from E. coli transformed with pUC18-B2 (absorbance at 412 nm). Type of series: biochemical. The settings on record: substrate specificity, vector pUC18-B2 (present invention).
Description: (§1) Escherichia coli transformed with pUC18-B2 having the herbicide-resistance gene of the present invention was inoculated into a liquid medium containing 50 ml of LB medium and 50 mg/L ampicillin, and cultured at 37° C. for 1 hour, and 50 μl of a 1 M thiogalactopyranoside solution was added to the culture solution, followed by culture at 37° C. for 3 hours. After completion of the culture, the culture solution was centrifuged at 5,000 rpm for 15 minutes to collect bacterial cells, and the cells were washed once with physiological saline. Then, the washed bacterial cells were suspended in 2 ml of a 20 mM Trisbuffer (pH 8.0) solution and disrupted by ultrasonic waves at 4° C. The solution was centrifuged at 15,000 rpm for 15 minutes to collect the supernatant. The supernatant was diluted 10-fold with 20 mM Tris buffer (pH 8.0) to prepare a crude enzyme solution. Then, 2 μl of the crude solution was added to 98 μl of a reaction solution, and the mixture was allowed to react at 28° C. for 1 hour, followed by measurement of the absorbance at 412 nm to measure the acetylation reaction. […]
(§2) The optimum pH and substrate specificity (Km value) to PPT and a structural homologue thereof, methionine sulfone (MS) were measured, and the results are shown in Table 2.
Series [2] deals with enzyme capable of acetylating PPT derived from actinomycete AB2253 strain (pUC19-AB). Briefly: Acetylation reaction with crude enzyme solution from E. coli transformed with pUC19-AB. In kind it is biochemical. The settings on record: substrate specificity, vector pUC19-AB (control).
Description: as §1, §2
Series [3] has as its system Escherichia coli transformed with pUC18-B1. Briefly: Growth on M9 agar medium containing bialaphos. Type of series: cell-based. The settings on record: 1 mM IPTG, 10 mg/L bialaphos. The protocol: The about 1.2-kb EcoRI-BglII fragment that had been confirmed to have a bialaphos-resistance gene was ligated to the EcoRI-BamHI site of a commercially available plasmid vector pUC18, and the resultant plasmid was introduced into Escherichia coli, to thereby yield a transformed Escherichia coli strain having a resistance to bialaphos. A deletion plasmid was prepared by using the SmaI site in the about 1.2-kb EcoRI, BglII fragment and was used to transform Escherichia coli, and as a result, the herbicide-resistance gene of the present invention was confirmed to be present on an about 0.6-kb EcoRI-SmaI fragment. 2 μg of the hybrid plasmid pBRB1 was cleaved with restriction enzymes EcoRI and BglII (20 units each) at 37° C. for 2 hours and subjected to agarose electrophoresis, and only a 1.2 kb-fragment was cut and purified using GeneClean. On the other hand, 2 μg of the plasmid pUC18 was cleaved with EcoRI and BamHI (20 units each) at 37° C. for 2 hours, and the fragments were purified using GeneClean (manufactured by Bio101). […]
That is, the plasmid pUC18-B1 was cleaved with restriction enzymes EcoRI and SmaI (20 units each) at 37° C. for 2 hours and subjected to agarose electrophoresis, and only a 0.6 kb-fragment was cut and purified using GeneClean. […] The nucleotide sequence was determined by custom DNA sequencing service (Hokkaido System Science Co., Ltd.).

Series [4] concerns Streptomyces lividans introduced with hybrid plasmid pBRB1. Briefly: Bialaphos resistance of transformants. Type of series: cell-based. The settings on record: all transformants with pBRB1. The protocol: The hybrid plasmid mixture thus obtained was used to transform a protoplast of Streptomyces lividans. The protoplast was regenerated, and then transformed strains having a bialaphos resistance were selected on a selective medium containing 10 mg/L bialaphos. The Streptomyces lividans used above as a host is a bacterial strain obtained by removing a plasmid pIJ703 from Streptomyces lividans 3131 by protoplastization and regeneration. Streptomyces lividans 3131 was obtained from Department of Antibiotics, National Institute of Health in 1985 (“The Journal of Antibiotics” 1985, vol. 38, pp. 390-400). […]
From the resultant two bialaphos-resistant strains, plasmids were extracted in accordance with a known method (“Current Topics in Microbiology and Immunology” 1982, vol. 96, pp. 69). […] These plasmids derived from the two strains were separately cleaved with a restriction enzyme BglII and analyzed by agarose electrophoresis. In both cases, the electrophoresis detected not only the DNA fragment of pIJ703 used in the vector but also an about 5.7-kb DNA fragment. […]

For series [5], the system named is Escherichia coli transformed with pUC18-B2. Briefly: Growth on M9 agar medium containing bialaphos. In kind it is cell-based. As to conditions: 1 mM IPTG, 10 mg/L bialaphos. The protocol:
That is, the plasmid pUC18-B1 was cleaved with restriction enzymes EcoRI and SmaI (20 units each) at 37° C. for 2 hours and subjected to agarose electrophoresis, and only a 0.6 kb-fragment was cut and purified using GeneClean. On the other hand, 2 μg of the plasmid pUC18 was cleaved with EcoRI and SmaI (20 units each) at 37° C. for 2 hours, and the fragments were purified using GeneClean (manufactured by Bio101). The DNA fragments were allowed to react using Takara Ligation kit at 16° C. for 3 hours, to thereby yield a solution of the plasmid pUC18-B2 obtained by integrating the about 0.6-kb EcoRI, SmaI-cleaved DNA fragment derived from pBRB1 into the EcoRI, SmaI-cleaved DNA fragment of the plasmid pUC18. […] The nucleotide sequence was determined by custom DNA sequencing service (Hokkaido System Science Co., Ltd.).

For series [6], the system named is CP(=O)(O)CC[C@H](N)C(=O)O. Briefly: cells, lysate or membranes named. As to conditions: other: substrate specificity; crude enzyme, vector pUC19-SH (control); pH 8.0.
Description: as §1, §2

Consider `CP(=O)(O)CC[C@H](N)C(=O)O` (racemic) [PPT, phosphinothricin], for which the Km in series [1] came out at 2460 µM; in series [2], 14300 µM.
For `CS(=O)(=O)CC[C@H](N)C(=O)O` [MS, methionine sulfone] the same measures were 13000 µM and 2200 µM.
Turning to `C[C@H](NC(=O)[C@H](C)NC(=O)[C@@H](N)CCP(C)(=O)O)C(=O)O` [bialaphos], the “growth on medium containing bialaphos” value in series [3] and in series [5] was “found to grow” in each case. For the same compound, the “resistance of transformants to bialaphos” value in series [4] is “all the resultant transformants were found to have a resistance to bialaphos”.
In the case of “enzyme capable of acetylating PPT derived from Streptomyces hygroscopicus (pUC19-SH) (Streptomyces hygroscopicus)”, the Km in series [6] is 90 µM.
